# In the supplement of paper PMC10307832:
# Tests used:
# Experiment in all cases: relative viability (nuclei count vs DMSO), 5 days (fraction); higher = more cells survive
# [1] = compound: CC(=O)Nc1cccc(-n2c(=O)n(C3CC3)c(=O)c3c(Nc4ccc(I)cc4F)n(C)c(=O)c(C)c32)c1 [Trametinib]
# Procedure, shortened: (§1)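 In 1536-well plates, lung cancer cell lines rested overnight at 37 °C before five library-drug doses (not always all listed), √10 apart, were pinned onto vehicle-anchored plates. Nuclei were counted with MetaXpress from 4× Hoechst images taken after 5 days without medium change. Viability compares treated-well with vehicle-well nuclei as a median over plates, and plates needed control CV below 25% plus at least one doubling to pass.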
# [2] = compound: CN1C=C(C2=CC=CC=C21)/C=C\3/C4=C(C=CC=N4)NC3=O
# Procedure, shortened: as §1
# [3] = compound: CC(=O)Nc1cccc(-n2c(=O)n(C3CC3)c(=O)c3c(Nc4ccc(I)cc4F)n(C)c(=O)c(C)c32)c1 [Trametinib] + N=C(N)NC(=N)NCCc1ccccc1 [Phenformin] (partner 250 µM)
# Procedure, shortened: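 Relative viability equals treated-well nuclei counts divided by vehicle-well nuclei counts. Counts came from 4× images of lung cancer cell lines grown in 1536-well plates for 5 days after pin-tool dosing on the day after seeding. Dosing used one drug alone or a fixed anchor-drug dose plus five library-drug doses (not always all listed) in √10 steps, and values are medians of duplicate plates.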
Cell Line,relative viability ([1]; 0.0025 µM),relative viability ([1]; 0.007906 µM),"relative viability ([1]; 0.02 µM, anchor plate)",relative viability ([1]; 0.025 µM),relative viability ([1]; 0.07906 µM),relative viability ([1]; 0.25 µM),relative viability ([2]; 0.02 µM),relative viability ([2]; 0.06325 µM),relative viability ([2]; 0.2 µM),relative viability ([2]; 0.6325 µM),relative viability ([2]; 2 µM),relative viability ([3]; first compound 0.0025 µM),relative viability ([3]; first compound 0.007906 µM),relative viability ([3]; first compound 0.025 µM),relative viability ([3]; first compound 0.07906 µM),relative viability ([3]; first compound 0.25 µM)
HCC-366,0.959,0.969,0.373,0.796,0.669,0.395,1.01,1,0.923,1.1,1.02,0.57,0.574,0.372,0.49,0.226
EKVX,0.852,0.766,0.364,0.583,0.491,0.395,0.952,0.812,0.801,0.885,0.983,0.234,0.209,0.198,0.192,0.24
NCI-H1993,0.698,0.732,0.54,0.548,0.693,0.628,0.927,0.84,0.825,0.671,0.814,0.538,0.536,0.558,0.554,0.56
NCI-H522,1.01,1.04,0.776,0.595,0.756,0.63,0.89,1.13,0.869,0.944,0.883,0.575,0.657,0.506,0.574,0.434
NCI-H1703,0.778,0.906,–,0.825,0.875,0.684,0.943,0.827,0.8,0.9,0.776,–,–,–,–,–
NCI-H23,0.876,0.831,0.417,0.349,0.433,0.264,0.802,0.849,0.685,1.03,0.986,0.782,0.738,0.312,0.583,0.303
HCC-827,0.999,0.958,0.508,0.92,0.738,0.609,0.94,0.978,–,1.11,1.06,0.374,0.373,0.334,0.313,0.313
PC-3 [JPC-3],1.03,0.916,0.7,0.843,0.764,0.637,1.03,1.02,0.859,0.975,0.989,0.46,0.463,0.427,0.405,0.373
NCI-H1355,0.921,0.796,0.419,0.542,0.653,0.583,0.933,0.888,0.899,0.692,0.824,0.394,0.415,0.322,0.382,0.308
NCI-H727,0.678,0.381,0.389,0.381,0.295,0.288,0.924,0.855,0.818,0.921,0.936,0.32,0.359,0.406,0.257,0.264
IA-LM,0.764,0.464,–,0.166,0.178,0.107,0.978,0.934,0.945,0.811,0.878,–,–,–,–,–
NCI-H1975,0.883,0.76,0.374,0.754,0.431,0.301,1.03,0.898,0.887,0.845,0.677,0.386,0.308,0.291,0.234,0.124
NCI-H460,0.982,0.969,0.159,0.668,0.339,0.12,1.04,0.98,0.973,0.992,0.947,0.502,0.332,0.237,0.135,0.041
EPLC-272H,0.844,0.644,0.287,0.503,0.327,0.188,0.921,0.828,0.639,0.645,0.869,0.273,0.194,0.171,0.15,0.128
SW 900,0.713,0.811,0.808,0.751,0.771,0.19,0.969,0.79,–,1.02,0.987,0.579,0.532,0.457,0.487,0.143
NCI-H1648,0.776,0.864,0.505,0.809,0.541,0.455,0.603,0.885,0.812,0.601,0.671,–,–,–,–,–
SK-LU-1,1.03,0.88,0.475,0.641,0.548,0.412,0.793,0.928,0.984,0.945,1.08,0.482,0.501,0.288,0.246,0.164
NCI-H322M,0.81,0.717,0.519,0.603,0.556,0.432,0.854,0.93,0.787,0.973,0.956,0.679,0.577,0.525,0.501,0.43
NCI-H2405,0.944,0.946,0.665,0.553,0.535,0.556,0.987,0.959,0.715,0.966,0.961,0.326,0.316,0.28,0.202,0.251
NCI-H1666,0.972,0.931,0.864,0.892,0.724,0.617,1.09,0.938,0.99,0.924,0.967,0.526,0.574,0.6,0.57,0.513
Calu-6,0.915,0.727,–,0.472,0.24,0.18,1.02,0.968,1.01,0.99,1.05,–,–,–,–,–
NCI-H1299,1.04,1.04,–,0.897,0.818,0.584,1.01,1.01,1.02,1.05,1.02,–,–,–,–,–
EBC-1,1,0.98,–,0.648,0.308,0.207,0.968,0.963,0.905,0.912,0.969,–,–,–,–,–
